For 62 molecules, melting point results are on record in a melting point compilation (Tetko et al.; mined from patent text by program, amines drawn as free bases though some values may be those of a salt).

Some results are limits rather than exact numbers.

In general, melting point refers to the temperature of the solid-liquid transition. In the case of `CCCCCCCCCCCCCCCCCC(=O)NCC(O)CO` (single isomer, unassigned; (+)), the melting point is 112 to 114 °C.
The value for `O=C(C=C(c1ccccc1)N1CNc2cccnc21)OCCC(OCCCc1ccc(Cl)cc1)C(=O)O` (configuration not stated) was 95 °C; that for `CCOc1cc2ncc(C#N)c(CC(=O)c3ccc(Br)cc3)c2cc1OCC` was 210 to 213 °C; that for `COC(=O)CN(CCN(CCN(CC(=O)OC)S(=O)(=O)c1ccc(C)cc1)S(=O)(=O)c1ccc(C)cc1)S(=O)(=O)c1ccc(C)cc1` was 141 to 142 °C.
The value for `CN(CCSC(=O)Cc1ccccc1Nc1c(Cl)cccc1Cl)CC1(SN=O)CCCCC1` was 115 to 129 °C.
The value for `CS(=O)(=O)c1ccc(-c2cccn2-c2ccccc2)cc1` was 140 to 142 °C; that for `CCOc1ccc(-c2ccc(Cl)nn2)c(OCC2CO2)c1` (configuration not stated) was 93 to 94 °C.
As for `O=C(NCc1ccc(Cl)cc1)c1cn2c3c(cc(CN4CCOCC4)cc3c1=O)CN(Cc1ccccc1)C2=O`, the melting point is 201 to 204 °C.
The value for `CCc1nnc(NS(=O)(=O)c2ccc(N)cc2)s1` was 190 to 191 °C.
The value for `COc1cccc(Sc2cccc(N)c2C#N)c1` was 79 to 81 °C; that for `Cc1ccc2c(-c3ccoc3)cc(=O)oc2c1` was 160 to 162 °C.
As for `CC1(C)CC(OC(=O)Nc2ccccc2)CC(C)(C)N1OC(=O)Nc1ccccc1`, the figure is 188 to 190 °C; as for `O=C(c1ccc(-n2cncn2)cc1)N1CCC(NCc2ccccc2)CC1`, 137 to 138 °C; as for `O=C(O)c1cc(-c2ccc(Br)cc2)nc(-c2ccc(Br)cc2)c1`, 292 to 294 °C.
Regarding `O=c1oc2cc(Oc3nnnn3-c3ccccc3)ccc2c2c1CN(Cc1ccccc1)CC2`, the melting point fell in the range of 165 to 166 °C.
The value for `COc1ccc2nc3n(c(=O)c2c1OC)CS(=O)(=O)N3` was greater than 300 °C; that for `N#Cc1cccc(C2C3=C(CCS3)NC3=C2SCC3)c1` was 248 °C; that for `CCC1CCCCn2c1nc(-c1ccncn1)cc2=O` (racemic) was 128 to 130 °C.
As for `CCCCc1oc2ccccc2c1C(=O)Nc1ccc2c(Br)c(OC(Cc3ccccc3)C(=O)OC)ccc2c1` (configuration not stated), the figure is 136 to 139 °C; as for `CC(C)c1cc(C(=O)Nc2ccc3[nH]c(C(=O)O)cc3c2)oc1C(C)C`, 240 to 243 °C.
As for `O=C(/C=C/C=C(c1ccc(F)cc1)c1ccc(F)cc1)Oc1ccc([N+](=O)[O-])cc1`, the figure is 112 to 114 °C; as for `CCNC(=O)N1CCN(c2ccc(NC(=O)c3cc(=O)c4cc(F)cc(N5CCN(C)CC5)c4o3)cc2)CC1`, 236 to 238 °C.
The molecule `CCc1noc(-c2cn(-c3nc[nH]n3)cn2)n1` displayed a melting point of 242 to 243 °C.
In the case of `CCCC(=O)N(C)SN(C(=O)NC(=O)c1c(F)cccc1F)c1ccc(Oc2ccc(C(F)(F)F)cc2Cl)cc1F`, the melting point lay within 136 to 138 °C.
In the case of `COc1ccc(CCNC(=O)CC=CCC(=O)NCCc2ccccc2)cc1OC`, the melting point fell in the range of 150 to 152 °C.
As for `C=C1C(=O)c2ccccc2OC1c1ccc([N+](=O)[O-])cc1` (configuration not stated), the figure is 135 to 136 °C; as for `C=CCn1nc(C)c(C(=O)c2ccc(Cl)cc2Cl)c1O`, 161 to 163 °C.
`CC(C)OC(OC(C)C)(O[C@H](C)Cn1cnc2c(Cl)nc(N)nc21)P(=O)(O)O` returned a melting point of 130 to 132 °C.
`O=C(Cn1ccnc1)c1ccc(CCc2ccccc2)cc1` registered a melting point of 134 to 136 °C.
As for `O=C(Nc1ccc(O)cc1)OCC(Cl)(Cl)Cl`, the melting point came to 134 °C.
The value for `NC(CC(=O)O)C1CC=CCC1` (configuration not stated) was 208 to 210 °C.
The value for `CCCCOc1ccc(S(=O)(=O)C2(C(=O)O)CCN(Cc3ccc(OC)cc3)CC2)cc1` was 173 °C; that for `Nc1ccc(N2CCN(Cc3ccccc3)CC2)cc1` was 137 to 138 °C; that for `Cc1ccc(OC2CCN(C(=O)C(=O)Nc3ccc4nc(S)[nH]c4c3)CC2)cc1` was 311 to 314 °C.
For `O=C1Nc2cccc(-c3cccc(Cl)c3)c2/C1=C/c1ccc[nH]1`, the melting point lay in the range of 165 to 167 °C.
As for `Clc1ccc(CCN2CCC3(CC2)Oc2ccccc2Cn2cccc23)cc1`, the figure is 116 to 118 °C; as for `CNC(NCCSCc1nccc(NC(N)=NCC(F)(F)F)n1)=C(C#N)C#N`, 173 to 174 °C; as for `O=CNc1nc2ccc([N+](=O)[O-])cc2s1`, 248 to 251 °C.
`COc1cc(Nc2nc3ccnc(-c4ccc(N)cc4)c3o2)cc(OC)c1OC` yielded a melting point of 148 to 151 °C.
As for `O=C1CCOc2c1ccc1c2OC(CN2CC=C(c3c[nH]c4ccccc34)CC2)CO1` (configuration not stated), the melting point stood at 210 °C.
The value for `Cn1ncc2c1-c1c(Sc3ccccc3)sc(C(N)=O)c1CC2` was 140 to 141 °C; that for `O=C(CCCCNCCOc1cccc2cccnc12)NC1CCCCC1` was 113 to 119 °C; that for `CC(=O)N1N=C(c2ccc([N+](=O)[O-])cc2)c2cc3c(cc2C=C1C)OCCOC3` was 202 to 204 °C.
As for `CCCC(=O)Oc1ccc(C)cc1[C@H](CCN(C(C)C)C(C)C)c1ccccc1`, the figure is 116 to 119 °C.
The molecule `CCCCc1nnc2ccccc2c1Cl` registered a melting point of 50 °C.
As for `COc1ccc(Nc2ncc3c(n2)-c2sc(C)nc2CC3)cn1`, the figure is 210 to 211 °C; as for `CS(=O)(=O)c1ccc(-c2nn(CCc3ccccc3)c(C(F)(F)F)c2-c2ccc(F)cc2)cc1`, 132 to 135 °C; as for `CC(C)(O)c1cccc(-c2ccc3nc(-c4ccc(Cl)cc4)cn3c2)c1`, 166 to 168 °C.
As for `O=[N+]([O-])c1cc(Cl)c(OCC(F)(F)F)cc1F`, the figure is 54 to 55 °C; as for `C1=Nc2cc3c(cc2=C1)N=c1ccccc1=3`, 210 to 211 °C.
The value for `CCCCCCCC/C=C\CCCCCCCC(=O)CCCNC(=O)CCNC(=O)C1OC(C)(C)OCC1(C)C` (configuration not stated) was 45 to 47 °C.
In turn, `CC(C)C(C#N)Nc1ccc(C(F)(F)F)cc1Cl` (configuration not stated) had a melting point of 63.2 to 64.8 °C.
`CCOC(=O)C(NC(=O)Cc1ccc(N)cn1)C(=O)OCC`: the melting point was in the range of 89 to 90 °C.
As for `CCCCN(c1cccc(-c2ccnc3c([N+](=O)[O-])cnn23)c1)S(=O)(=O)c1ccccc1`, the figure is 159 to 160 °C.
`Cc1nc2ccc(NC3=NCCN3)c(Br)c2nc1C` yielded a melting point of 252 to 254 °C.
`CCOC(=O)c1ccc(OC(F)F)cc1SC` registered a melting point of 83 to 85 °C.
Consider `N#Cc1cn(-c2c(Cl)cc(C(F)(F)F)cc2Cl)nc1F`, for which the melting point was 120 to 121 °C.
In turn, `CN(C)CCNC(=O)c1ccc(S(N)(=O)=O)cc1` came in with a melting point of 150 to 151 °C.
In turn, `CN1CCN(CC(=O)N2c3ccccc3C(=O)Nc3cccnc32)CC1` yielded a melting point of 198 to 200 °C.
The value for `Cc1cn(-c2ccc(NC(=O)c3ccc(C)c(C#Cc4cnc(NC5CC5)nc4)c3)cc2C(F)(F)F)cn1` was 131 to 133 °C; that for `COC(=O)CC(C)NC(=O)c1ccc(N2CCN(c3ccncc3)CC2)cc1` (configuration not stated) was 130 to 132 °C; that for `CC(C)(C)c1ccc(OCC(O)CN2CCC3(CC2)CSC2=C(O3)c3cc(Br)ccc3C(=O)C2=O)cc1` (configuration not stated) was 150 to 152 °C.
